Experimental data reported in patent publication US20230391760A1, “HETEROCYCLIC GLP-1 AGONISTS” (Gasherbrum Bio, Inc., priority 2020, published 2023).
pEC50: −log10 of the molar value.

biological target: GLP-1 Receptor (Homo sapiens, UniProt P43220); assay: GLP-1R agonist cAMP stimulation assay (HEK293/GLP1R/CRE-LUC cells, cAMP dynamic 2 Kit); type: cell-based; conditions: HEK293/CRE-Luc cell line stably expressing the GLP-1 Receptor, 30 min at 37° C.
Summary of the method: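 HEK293 cells stably expressing human GLP-1R with CRE-luciferase, 1000 cells/well in DPBS with 0.5 mM IBMX and 0.1% BSA, treated with compound in 1/2-log serial dilution for 30 min at 37 °C. cAMP then detected by HTRF (cAMP-d2 plus anti-cAMP cryptate), 1 h at room temperature in the dark.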

GLP-1 Receptor, sequence (P43220 24-463, species assumed): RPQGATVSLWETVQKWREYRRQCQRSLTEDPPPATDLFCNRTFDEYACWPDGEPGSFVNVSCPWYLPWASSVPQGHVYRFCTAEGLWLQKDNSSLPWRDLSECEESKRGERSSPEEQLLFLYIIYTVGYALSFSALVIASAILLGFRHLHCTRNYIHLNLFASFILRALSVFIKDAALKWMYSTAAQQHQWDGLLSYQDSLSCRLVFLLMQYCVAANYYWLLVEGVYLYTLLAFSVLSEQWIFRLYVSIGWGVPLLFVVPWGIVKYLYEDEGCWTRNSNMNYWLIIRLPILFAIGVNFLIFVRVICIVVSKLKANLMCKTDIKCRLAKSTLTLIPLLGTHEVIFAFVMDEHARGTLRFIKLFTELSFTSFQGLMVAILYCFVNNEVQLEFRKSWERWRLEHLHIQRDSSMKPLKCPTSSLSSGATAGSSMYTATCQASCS

Compound	pEC50
CC1(c2ccc(Cl)cn2)Oc2cccc(C3CCN(Cc4nc5cc(-c6nnc(C7CC7)[nH]6)ccc5n4C[C@@H]4CCO4)CC3)c2O1 (stereo partly drawn) [Compound 270a, 2-({4-[2-(5-chloropyridin-2-yl)-2-methyl-2H-1,3-benzodioxol-4-yl]piperidin-1-yl}methyl)-5-(5-cyclopropyl-4H-1,2,4-triazol-3-yl)-1-{[(2S)-oxetan-2-yl]methyl}-1H-1,3-benzodiazole]	9.07
O=c1[nH]c(-c2cc3nc(CN4CCC(c5cccc6c5OC[C@@H](c5ccc(Cl)cc5)O6)CC4)n(C[C@@H]4CCO4)c3cn2)no1 [Compound 422a, 3-[2-({4-[(2R)-2-(4-chlorophenyl)-2,3-dihydro-1,4-benzodioxin-5-yl]piperidin-1-yl}methyl)-3-{[(2S)-oxetan-2-yl]methyl}-3H-imidazo[4,5-c]pyridin-6-yl]-4,5-dihydro-1,2,4-oxadiazol-5-one]	9.77
CC1(c2ccc(Cl)cn2)Oc2cccc(C3CCN(Cc4nc5cc(-c6nnc(C7CC7)[nH]6)cnc5n4C[C@@H]4CCO4)CC3)c2O1 (stereo partly drawn) [Compound 268a, 5-chloro-2-[4-(1-{[6-(5-cyclopropyl-4H-1,2,4-triazol-3-yl)-3-{[(2S)-oxetan-2-yl]methyl}-3H-imidazo[4,5-b]pyridin-2-yl]methyl}piperidin-4-yl)-2-methyl-2H-1,3-benzodioxol-2-yl]pyridine]	8.38
Fc1cc(Cl)ccc1COc1cccc(C2=CCN(Cc3nc4cc(-c5nnc(C(F)(F)F)[nH]5)cnc4n3C[C@@H]3CCO3)CC2)n1 [Compound 323a, 6-[(4-chloro-2-fluorophenyl)methoxy]-1′-[(3-{[(2S)-oxetan-2-yl]methyl}-6-[5-(trifluoromethyl)-4H-1,2,4-triazol-3-yl]-3H-imidazo[4,5-b]pyridin-2-yl)methyl]-1′,2′,3′,6′-tetrahydro-2,4′-bipyridine]	10.80
Fc1cc(Cl)ccc1COc1nc(N2CCN(Cc3nc4cc(-c5nnc(C(F)(F)F)[nH]5)cnc4n3C[C@@H]3CCO3)CC2)ccc1F [Compound 516a, 1-{6-[(4-chloro-2-fluorophenyl)methoxy]-5-fluoropyridin-2-yl}-4-[(3-{[(2S)-oxetan-2-yl]methyl}-6-[5-(trifluoromethyl)-4H-1,2,4-triazol-3-yl]-3H-imidazo[4,5-b]pyridin-2-yl)methyl]piperazine]	10.74
O=C(Nc1ccc2c(c1)nc(CN1CCC(c3cccc(OCc4ccc(Cl)cc4F)n3)CC1)n2C[C@@H]1CCO1)N1CCC(O)C1 (stereo partly drawn) [Compound 207a, N-{2-[(4-{6-[(4-chloro-2-fluorophenyl)methoxy]pyridin-2-yl}piperidin-1-yl)methyl]-1-{[(2S)-oxetan-2-yl]methyl}-1H-1,3-benzodiazol-5-yl}-3-hydroxypyrrolidine-1-carboxamide]	9.41
O=c1[nH]c(-c2cnc3c(c2)nc(CN2CCC(c4cccc(OCc5ccc(Cl)cc5F)n4)CC2)n3C[C@@H]2CCO2)no1 [Compound 328a, 3-{2-[(4-{6-[(4-chloro-2-fluorophenyl)methoxy]pyridin-2-yl}piperidin-1-yl)methyl]-3-{[(2S)-oxetan-2-yl]methyl}-3H-imidazo[4,5-b]pyridin-6-yl}-4,5-dihydro-1,2,4-oxadiazol-5-one]	9.43
CC1(C)CCC(C(=O)Nc2ccc3c(c2)nc(CN2CCC(c4cccc(OCc5ccc(Cl)cc5F)n4)CC2)n3C[C@@H]2CCO2)CO1 (stereo partly drawn) [Compound 192a, N-{2-[(4-{6-[(4-chloro-2-fluorophenyl)methoxy]pyridin-2-yl}piperidin-1-yl)methyl]-1-{[(2S)-oxetan-2-yl]methyl}-1H-1,3-benzodiazol-5-yl}-6,6-dimethyloxane-3-carboxamide]	8.21
C[C@]1(c2ccc(Cl)cc2F)Oc2cccc(C3CCN(Cc4nc5cc(-c6noc(=O)[nH]6)cnc5n4CC4(C#N)CC4)CC3)c2O1 [Compound 334a, 1-{[2-({4-[(2S)-2-(4-chloro-2-fluorophenyl)-2-methyl-2H-1,3-benzodioxol-4-yl]piperidin-1-yl}methyl)-6-(5-oxo-4,5-dihydro-1,2,4-oxadiazol-3-yl)-3H-imidazo[4,5-b]pyridin-3-yl]methyl}cyclopropane-1-carbonitrile]	9.60
O=C(O)CCc1ccc2c(c1)nc(CN1CC=C(c3cccc(OCc4ccc(Cl)cc4F)n3)CC1)n2C[C@@H]1CCO1 [Compound 113a, (S)-3-(2-((6-((4-chloro-2-fluorobenzyl)oxy)-3′,6′-dihydro-[2,4′-bipyridin]-1′(2′H)-yl)methyl)-1-(oxetan-2-ylmethyl)-1H-benzo[d]imidazol-5-yl)propanoic acid]	7.42
O=C(Nc1ccc2c(c1)nc(CN1CCC(c3cccc(OCc4ccc(Cl)cc4F)n3)CC1)n2C[C@@H]1CCO1)C1CCC(F)(F)C1 (stereo partly drawn) [Compound 186a, N-{2-[(4-{6-[(4-chloro-2-fluorophenyl)methoxy]pyridin-2-yl}piperidin-1-yl)methyl]-1-{[(2S)-oxetan-2-yl]methyl}-1H-1,3-benzodiazol-5-yl}-3,3-difluorocyclopentane-1-carboxamide]	8.52
O=C1OCCN1c1ccc2c(c1)nc(CN1CCC(c3cccc(OCc4ccc(Cl)cc4F)n3)CC1)n2C[C@@H]1CCO1 [Compound 120a, 3-{2-[(4-{6-[(4-chloro-2-fluorophenyl)methoxy]pyridin-2-yl}piperidin-1-yl)methyl]-1-{[(2S)-oxetan-2-yl]methyl}-1H-1,3-benzodiazol-5-yl}-1,3-oxazolidin-2-one]	8.40
C[C@]1(c2ccc(Cl)cc2F)Oc2cccc(C3CCN(Cc4nc5cc(C(N)=O)nnc5n4C[C@@H]4CCO4)CC3)c2O1 [Compound 432a, 6-({4-[(2S)-2-(4-chloro-2-fluorophenyl)-2-methyl-2H-1,3-benzodioxol-4-yl]piperidin-1-yl}methyl)-7-{[(2S)-oxetan-2-yl]methyl}-7H-imidazo[4,5-c]pyridazine-3-carboxamide]	8.16
Fc1cc(Cl)ccc1COc1cccc(C2CCN(Cc3nc4cc(-c5nnc(C(F)(F)F)[nH]5)nnc4n3C[C@@H]3CCO3)CC2)n1 [Compound 486a, 2-[(4-chloro-2-fluorophenyl)methoxy]-6-{1-[(7-{[(2S)-oxetan-2-yl]methyl}-3-[5-(trifluoromethyl)-4H-1,2,4-triazol-3-yl]-7H-imidazo[4,5-c]pyridazin-6-yl)methyl]piperidin-4-yl}pyridine]	10.42
CC1(c2ccc(Cl)cc2F)Oc2cccc(C3CCN(Cc4nc5cc(-c6nnc(C(F)(F)F)[nH]6)cnc5n4C[C@H]4CCCO4)CC3)c2O1 (stereo partly drawn) [Compound 245a, 4-[2-(4-chloro-2-fluorophenyl)-2-methyl-2H-1,3-benzodioxol-4-yl]-1-[(3-{[(2R)-oxolan-2-yl]methyl}-6-[5-(trifluoromethyl)-4H-1,2,4-triazol-3-yl]-3H-imidazo[4,5-b]pyridin-2-yl)methyl]piperidine]	8.59
CCC(=O)Nc1ccc2c(c1)nc(CN1CCC(c3cccc(OCc4ccc(Cl)cc4F)n3)CC1)n2C[C@@H]1CCO1 [Compound 102a, (S)—N-(2-((4-(6-((4-chloro-2-fluorobenzyl)oxy)pyridin-2-yl)piperidin-1-yl)methyl)-1-(oxetan-2-ylmethyl)-1H-benzo[d]imidazol-5-yl)propionamide]	9.27
O=C(Nc1ccc2c(c1)nc(CN1CCC(c3cccc(OCc4ccc(Cl)cc4F)n3)CC1)n2C[C@@H]1CCO1)N1CCC(F)(F)C1 [Compound 205a, N-{2-[(4-{6-[(4-chloro-2-fluorophenyl)methoxy]pyridin-2-yl}piperidin-1-yl)methyl]-1-{[(2S)-oxetan-2-yl]methyl}-1H-1,3-benzodiazol-5-yl}-3,3-difluoropyrrolidine-1-carboxamide]	8.55
O=C(Nc1ccc2c(c1)nc(CN1CCC(c3cccc(OCc4ccc(Cl)cc4F)n3)CC1)n2C[C@@H]1CCO1)C(F)(F)F [Compound 167a, N-{2-[(4-{6-[(4-chloro-2-fluorophenyl)methoxy]pyridin-2-yl}piperidin-1-yl)methyl]-1-{[(2S)-oxetan-2-yl]methyl}-1H-1,3-benzodiazol-5-yl}-2,2,2-trifluoroacetamide]	8.96
Cn1cc(-c2ccc3c(c2)nc(CN2CCC(c4cccc5c4OC(C)(c4ccc(Cl)cc4F)O5)CC2)n3C[C@@H]2CCO2)cn1 (stereo partly drawn) [Compound 233a, 2-((4-(2-(4-chloro-2-fluorophenyl)-2-methylbenzo[d][1,3]dioxol-4-yl)piperidin-1-yl)methyl)-5-(1-methyl-1H-pyrazol-4-yl)-1-(((S)-oxetan-2-yl)methyl)-1H-benzo[d]imidazole]	8.40
C[C@H]1CN(c2ccc(F)c(OCc3ccc(Cl)cc3F)c2)CCN1Cc1nc2cc(-c3nnc(C(F)(F)F)[nH]3)ncc2n1C[C@@H]1CCO1 [Compound 479a, (2S)-4-{3-[(4-chloro-2-fluorophenyl)methoxy]-4-fluorophenyl}-2-methyl-1-[(3-{[(2S)-oxetan-2-yl]methyl}-6-[5-(trifluoromethyl)-4H-1,2,4-triazol-3-yl]-3H-imidazo[4,5-c]pyridin-2-yl)methyl]piperazine]	10.00
O=C(Nc1ccc2c(c1)nc(CN1CCC(c3cccc(OCc4ccc(Cl)cc4F)n3)CC1)n2C[C@@H]1CCO1)c1ccc(F)cn1 [Compound 190a, N-{2-[(4-{6-[(4-chloro-2-fluorophenyl)methoxy]pyridin-2-yl}piperidin-1-yl)methyl]-1-{[(2S)-oxetan-2-yl]methyl}-1H-1,3-benzodiazol-5-yl}-5-fluoropyridine-2-carboxamide]	8.92
N#Cc1ccc(COc2cccc(N3CCN(Cc4nc5cc(-c6nnc(C(F)(F)F)[nH]6)cnc5n4C[C@@H]4CCO4)CC3)n2)c(F)c1 [Compound 495a, 3-fluoro-4-{[(6-{4-[(3-{[(2S)-oxetan-2-yl]methyl}-6-[5-(trifluoromethyl)-4H-1,2,4-triazol-3-yl]-3H-imidazo[4,5-b]pyridin-2-yl)methyl]piperazin-1-yl}pyridin-2-yl)oxy]methyl}benzonitrile]	11.08
